Data reported in publication PMC8878047 (Pharmaceutics, 2022).

Test system: KM mice
Type: in vivo
Settings: high-dose group, dead mice, HE staining
Procedure: After the acute toxicity test, the dead mice after oral administration and the surviving mice at the end of the observation period were promptly dissected and pathologically examined. […] We dissected the important organs (heart, liver, spleen, lung, kidney, large intestine, and small intestine) of dead mice and normal mice in the high-dose group of each drug solution. Then, the main organs were fixed in 10% buffered formalin and embedded in paraffin for 1–4 h. They were histopathologically examined under the optical microscope after slicing and staining with hematoxylin-eosin (HE) staining. No fixed parameters were compared between the treatment and control groups.

SMILES: CCN1CCN(c2cc3c(cc2F)c(=O)c(C(=O)[O-])cn3C2CC2)CC1.[Na+] [EFX-Na, reference compound]
- histopathological finding in kidney tissue: more and larger glomeruli in kidney tissue
